Assay results published in patent publication US8124655B2, “Use of LR-90 and LR-102 to overcome insulin resistance” (City of Hope, priority 2007, dated 2012).

System: Zucker diabetic fatty (ZDF) rat
Assay: Renal function: urinary albumin and total protein excretion, kidney weights (Example 1)
Assay type: in vivo
Method: All animal studies were carried out in compliance with policies outlined in The Guide for the Care and Handling of Laboratory Animals (NIH Publication No. 85-23) that have been approved by the City of Hope Animal Care Committee. Male ZDF (fa/fa) and male Zucker lean (+/+; ZL) rats were obtained at the age of 5 weeks from Charles River Laboratories (Wilmington, Mass., USA). Animals were maintained with free access to Purina 5008 rat chow (Purina Mills, St Louis, Mo., USA) and tap water. All animals were individually housed in a controlled room with a 12 h dark-light cycle. At the age of 13 weeks, the animals were divided into the following groups: (1) ZL rats (n=6); (2) ZDF rats without treatment (n=6); and (3) ZDF rats treated with LR-90 at 50 mg/l in their drinking water (ZDF90, n=6). The dose of LR-90 was chosen after previous experiments with type 1 diabetic nephropathy. Food, water intake, body weight and blood glucose levels were monitored periodically. Systolic blood pressure was measured by tail-cuff plethysmography (CODA2 Blood Pressure System; Kent Scientific, Torrington, Conn., USA). Animals were killed at the age of 40 weeks by over-anaesthetisation with isoflurane and cardiac puncture. Blood samples were collected from each animal and transferred accordingly into heparinised vacutainer tubes; they were later centrifuged (1,500×g for 10 min at 4° C.) for plasma isolation. The kidneys were removed immediately, rinsed in PBS and weighed, after which specimens were snap-frozen in liquid nitrogen or fixed in 10% (vol./vol.) neutral buffered formalin for further biochemical and histological analyses. Plasma glucose, lipids and Nε-(carboxymethyl)lysine-AGE Plasma glucose was measured using a glucose analyzer (2300 STAT; YSI, Yellowsprings, Ohio, USA). Total plasma triacylglycerol and cholesterol concentrations were quantified using the Vitros 250 Chemistry System (Johnson & Johnson, Rochester, N.Y., USA). Nε-(Carboxymethyl)lysine (CML)-AGE was liberated from plasma proteins by acid hydrolysis and then measured by ion-pair reversed-phase liquid chromatography/tandem mass spectrometry as described previously.
Renal function was assessed by measuring urinary albumin and total protein excretion. Prior to killing, rats were housed in metabolism cages for 24 h urine collection. Urinary albumin was quantified using the Nephrat kit according to manufacturer's instructions. Total urinary protein was measured using a kit (DC Assay; Bio-Rad Laboratories, Hercules, Calif., USA).

[1] = ZDF rats, LR-90 50 mg/l in drinking water, at 40 weeks of age, mean ± SEM

CC(C)(Oc1ccc(NC(=O)Nc2ccc(Cc3ccc(NC(=O)Nc4ccc(OC(C)(C)C(=O)O)cc4)c(Cl)c3)cc2Cl)cc1)C(=O)O [LR-90, methylene bis[4,4′-(2-chlorophenylureidophenoxyisobutyric acid)]]
Mean Kidney Weights [1]: 4.23 ± 0.27 g | Relative Kidney Weights [1]: 12.23 ± 0.78 g/kg | Total Urinary Protein [1]: 176.4 ± 43.3 mg/24 h | Urinary Albumin [1]: 25.8 ± 4.8 mg/24 h | Urine Volume [1]: 137 ± 24 mL/day | prevention of increase in total urinary protein (vs untreated ZDF rats, p<0.01): 67% | prevention of increase in urinary albumin (vs untreated ZDF rats, p<0.05): 42%
